For orientation: inhibition means how much of the control response was suppressed.

The first test relates to RSV strain A2. The experiment in a line: RSV antiviral activity, in vitro cytoprotection assay in Hep2 cells. It is filed as cell-based, Respiratory Syncytial Virus (RSV). The following applies: 0.5 μM compound; RSV-induced cytopathic effect in Hep2 cells; % inhibition calculated from fitted 4-parameter dose response curve, normalized to 0% and 100%. The method, then: Antiviral activity against RSV was determined using an in vitro cytoprotection assay in Hep2 cells. […] The method used was similar to methods previously described in published literature (Chapman et al., Antimicrob Agents Chemother. 2007, 51(9):3346-53.)
Hep2 cells were obtained from ATCC (Manassas, Va.) and maintained in MEM media supplemented with 10% fetal bovine serum and penicillin/streptomycin. Cells were passaged twice a week and kept at subconfluent stage. Commercial stock of RSV strain A2 (Advanced Biotechnologies, Columbia, Md.) was titered before compound testing to determine the appropriate dilution of the virus stock that generated desirable cytopathic effect in Hep2 cells.
For antiviral tests, Hep2 cells were seeded into 96-well plates 24 hours before the assay at a density of 3,000 cells/well. On a separate 96 well plate, compounds to be tested were serially diluted in cell culture media. Eight concentrations in 3-fold serial dilution increments were prepared for each tested compound and 100 uL/well of each dilution was transferred in duplicate onto plates with seeded Hep2 cells. Subsequently, appropriate dilution of virus stock previously determined by titration was prepared in cell culture media and 100 uL/well was added to test plates containing cells and serially diluted compounds. Each plate included three wells of infected untreated cells and three wells of uninfected cells that served as 0% and 100% virus inhibition control, respectively. Following the infection with RSV, testing plates were incubated for 4 days in a tissue culture incubator. After the incubation, RSV-induced cytopathic effect was determined using a Cell TiterGlo reagent (Promega, Madison, Wis.) followed by a luminescence read-out. The percentage inhibition was calculated for each tested concentration relative to the 0% and 100% inhibition controls and the EC50 value for each compound was determined by non-linear regression as a concentration inhibiting the RSV-induced cytopathic effect by 50%. Ribavirin (purchased from Sigma, St. Louis, Mo.) was used as a positive control for antiviral activity.
Compounds were also tested for antiviral activity against RSV in Hep2 cells using a 384 well format. Compounds were diluted in DMSO using a 10-step serial dilution in 3-fold increments via automation in 4 adjacent replicates each. Eight compounds were tested per dilution plate. 0.4 uL of diluted compounds were then stamped via Biomek into 384-well plates (Nunc 142761 or 164730 w/lid 264616) containing 20 μL of media (Mediatech Inc. MEM supplemented with Glutamine, 10% FBS and Pen/Strep). DMSO and a suitable positive control compound, such as 80 μM GS-329467 or 10 μM 427346 was used for the 100% and 0% cell killing controls, respectively.
Hep2 cells (1.0×10^5 cells/ml) were prepared as above in batch to at least 40 mls excess of the number of sample plates (8 mls cell mix per plate) and infected with vendor supplied (ABI) RSV strain A2 to arrive at an MOI of 1:1000 (virus:cell #) or 1:3000 (vol virus:cell vol). Immediately after addition of virus, the RSV infected Hep2 cell suspension was added to each stamped 384-well plate at 20 μl per well using a uFlow dispenser, giving a final volume of 40 μL/well, each with 2000 infected cells. The plates were then incubated for 5 days at 37° C. and 5% CO2. Following incubation, the plates were equilibrated to room temperature in a biosafety cabinet hood for 1.5 hrs and 40 μL of Cell-Titer Glo viability reagent (Promega) was added to each well via uFlow. Following a 10-20 minute incubation, the plates were read using an EnVision or Victor Luminescence plate reader (Perkin-Elmer). The data was then uploaded and analyzed on the Bioinformatics portal under the RSV Cell Infectivity and 8-plate EC50-Hep2-384 or 8-plate EC50-Hep2-Envision protocols. […]
`Cc1cc(C2CC2)nc2cc([C@@H]3CCCCN3C(=O)c3ccc(Cl)c(F)c3NS(C)(=O)=O)nn12` [Compound 31]: the “Percent inhibition at 0.5 μM” value is 86%.

Staying with this test, now noted: human respiratory syncytial virus, HEp-2; 0.5 μM compound; RSV-induced cytopathic effect in Hep2 cells; % inhibition calculated from fitted 4-parameter dose response curve, normalized to 0% and 100%; read-out: Percent inhibition at 0.5 μM.
In the case of `CN1CCN(c2cc(C3CC3)nc3cc([C@@H]4CCCCN4C(=O)c4cc(Cl)ccc4NS(C)(=O)=O)nn23)CC1` [Compound 59], the inhibition at 0.5 µM was 92%.
As for `CS(=O)(=O)Nc1ccc(Cl)cc1C(=O)N1CCCC[C@H]1c1cc2nc(C3CNC3)cc(N3CCOCC3)n2n1` [Compound 56], the inhibition at 0.5 µM is 93%.
On the same count and under the same terms, under `CC(=O)Nc1sccc1C(=O)N1CCCC[C@H]1c1cc2nc(N3CC[C@H](N)C3)c(C)cn2n1` [Compound 13] stands 98%; under `COc1ccc(C)cc1C(=O)N1CCCC[C@H]1c1cc2nc(N3CC[C@H](N)C3)c(C)cn2n1` [Compound 8], 100%; under `Cc1cn2nc([C@@H]3CCCCN3C(=O)c3cc(Cl)ccc3CN=[N+]=[N-])cc2nc1N1CC[C@H](N)C1` [Compound 35], 100%.
On the same count and under the same terms, then `CC(=O)Nc1ccc(C)cc1C(=O)N1CCCC[C@H]1c1cc2nc(N3CCC[C@H](N)C3)c(C)cn2n1` [Compound 86], with 84%; and `COc1ccc(Cl)cc1C(=O)N1CCCC[C@H]1c1cc2nc(N3CC[C@H](N)C3)c(C)cn2n1` [Compound 10], with 100%.
The same measure, in the same setting: then `Cc1cn2nc([C@@H]3CCCCN3C(=O)c3cc(Cl)ccc3NC(=O)N(C)C)cc2nc1N1CC[C@H](N)C1` [Compound 64], with 100%; and `Cc1cn2nc([C@@H]3CCCCN3C(=O)c3cc(Cl)ccc3NS(C)(=O)=O)cc2nc1N1CCC12CNC2` [Compound 42], with 100%.
On to `CS(=O)(=O)Nc1ccc(Cl)cc1C(=O)N1CCCC[C@H]1c1cc2nc(N3CC(CO)C3)cc(N3CCOCC3)n2n1` [Compound 89], for which the inhibition at 0.5 µM was 90%.
In the case of `CC(=O)Nc1ccc(C)cc1C(=O)N1CCCC[C@H]1c1cc2nc(N3CC(NC(=O)OC(C)(C)C)C3)c(C)cn2n1` [Compound 87], the inhibition at 0.5 µM was 89%.
Take `Cc1ccc(NS(C)(=O)=O)c(C(=O)N2CCCC[C@H]2c2nc3c(C)cc(C)nc3[nH]2)c1` [Compound 112]: the inhibition at 0.5 µM was 5%.
As for `Cc1cn2nc([C@@H]3CCCCN3C(=O)c3cc(Cl)ccc3NS(=O)(=O)N(C)C)cc2nc1N1CC[C@H](N)C1` [Compound 61], the inhibition at 0.5 µM is 100%.
On to `CNc1c(C)c(C)nc2cc([C@@H]3CCCCN3C(=O)c3cc(Cl)cc(C)c3NS(C)(=O)=O)nn12` [Compound 25], for which the inhibition at 0.5 µM was 97%.
As to `Cc1ccc(C(=O)N2CCCC[C@H]2c2cc3nc(C4CC4)cc(C)n3n2)c(NS(C)(=O)=O)c1` [Compound 76], the inhibition at 0.5 µM is 99%.
Still for that read-out and setting: then `Cc1cc(C2CC2)nc2cc([C@@H]3CCCCN3C(=O)c3cc(F)ccc3NS(C)(=O)=O)nn12` [Compound 75], with 100%; and `Cc1ccc(C(=O)N2CCCC[C@H]2c2cc3nc(N4CC[C@H](N)C4)c(C)cn3n2)c(C)c1` [Compound 4], with 100%.
Consider `Cc1cc(C)n2nc(C3CCCCN3C(=O)c3cc(Cl)ccc3NS(C)(=O)=O)nc2n1` (stereo not drawn) [Compound 113], for which the inhibition at 0.5 µM was 16%.
Consider `Cc1ccc(NS(C)(=O)=O)c(C(=O)N2CCCC[C@H]2c2cc3nc(C4CC4)c(C)cn3n2)c1` [Compound 73], for which the inhibition at 0.5 µM is 100%.
`O=C(c1cc(Cl)ccc1NS(=O)(=O)CC(F)(F)F)N1CCCC[C@H]1c1cc2nc(N3CCC3)cc(N3CCNCC3)n2n1` [Compound 55]: the inhibition at 0.5 µM was 98%.

Values taken from US10174038B2, “Compounds and methods for antiviral treatment” (Gilead Sciences, Inc., priority 2012, dated 2019).
